From patent US7449463B2, “Morpholinyl containing benzimidazoles as inhibitors of respiratory syncytial virus replication” (Tibotec Pharmaceuticals Ltd., priority 2003, dated 2008) come the findings set out here.

The structures appear in SMILES notation.

System in one series: not given
Experiment: not given
Details: not given
As usually defined, the melting point is the temperature, or range, at which the solid turns liquid. In turn, `Cc1ccc(S(=O)(=O)CCO)c(NCc2ccc3nc(NCCCN4CCOCC4)n(Cc4nc(C)ccc4O)c3c2)c1` [Compound 12] returned a melting point of 170 °C.

`Cc1cc(C)cc(NCc2ccc3nc(NCCCN4CCOCC4)n(Cc4nc(C)ccc4O)c3c2)c1` [Compound 23, 2-[6-[(3,5-dimethyl-phenylamino)-methyl]-2-(3-morpholin-4-yl-propylamino)-benzoimidazol-1-ylmethyl]-6-methyl-pyridin-3-ol] returned a melting point of 199 °C.

With `Cc1ccc(O)c(Cn2c(NCCCN3CCOCC3)nc3ccc(CNc4c(C)cc(CCC#N)cc4C)cc32)n1` [Compound 49, 3-(4-{[3-(3-hydroxy-6-methyl-pyridin-2-ylmethyl)-2-(3-morpholin-4-yl-propylamino)-3H-benzoimidazol-5-ylmethyl]-amino}-3,5-dimethyl-phenyl)-propionitrile], the melting point came out at 114 °C.

With `Cc1ccc(I)c(NCc2ccc3nc(NCCCN4CCOCC4)n(Cc4nc(C)ccc4O)c3c2)c1` [Compound 50], the melting point turned out to be 225 °C.

With `Cc1cc(C)cc(N(CCO)Cc2ccc3nc(NCCCN4CCOCC4)n(Cc4nc(C)ccc4O)c3c2)c1` [Compound 58, 2-[6-{[(3,5-dimethyl-phenyl)-(2-hydroxy-ethyl)-amino]-methyl}-2-(3-morpholin-4-yl-propylamino)-benzimidazol-1-ylmethyl]-6-methyl-pyridin-3-ol], the melting point worked out at 180 °C.

Turning to `Cc1cc(C)cc(N(CCCC(N)=O)Cc2ccc3nc(NCCCN4CCOCC4)n(Cc4nc(C)ccc4O)c3c2)c1` [Compound 59, 2-[6-{[(3,5-dimethyl-phenyl)-(3-aminocarbonyl-propyl)-amino]-methyl}-2-(3-morpholin-4-yl-propylamino)-benzimidazol-1-ylmethyl]-6-methyl-pyridin-3-ol], the melting point came out at 170 °C.

As for `Cc1cc(C)cc(N(CCCC(=O)O)Cc2ccc3nc(NCCCN4CCOCC4)n(Cc4nc(C)ccc4O)c3c2)c1` [Compound 62, 4-{(3,5-dimethyl-phenyl)-[3-(3-hydroxy-6-methyl-pyridin-2-ylmethyl)-2-(3-morpholin-4-yl-propylamino)-3H-benzoimidazol-5-ylmethyl]-amino}-butyric acid], the melting point was determined as 121 °C.

In turn, `Cc1cc(C)cc(N(CCN)Cc2ccc3nc(NCCCN4CCOCC4)n(Cc4nc(C)ccc4O)c3c2)c1` [Compound 66, 2-[6-{[(2-amino-ethyl)-(3,5-dimethyl-phenyl)-amino]-methyl}-2-(3-morpholin-4-yl-propylamino)-benzoimidazol-1-ylmethyl]-6-methyl-pyridin-3-ol] came in with a melting point of 196 °C.

The test system of another series is Respiratory Syncytial Virus. Kind of series: microbe, parasite or virus in culture. It counts as cell-based. As to conditions: RSV-infected HeLa cells, MTT readout seven days after infection; −log of EC50 in molar units. From the text:
In vitro Screening for Activity against Respiratory Syncytial Virus.
The percent protection against cytopathology caused by viruses (antiviral activity or EC50) achieved by tested compounds and their cytotoxicity (CC50) are both calculated from dose-response curves. The selectivity of the antiviral effect is represented by the selectivity index (SI), calculated by dividing the CC50 (cytotoxic dose for 50% of the cells) by the EC50 (antiviral activity for 50% of the cells).
Automated tetrazolium-based colorimetric assays were used for determination of EC50 and CC50 of test compounds. Flat-bottom, 96-well plastic microtiter trays were filled with 180 μl of Eagle's Basal Medium, supplemented with 5% FCS (0% for FLU) and 20 mM Hepes buffer. Subsequently, stock solutions (7.8× final test concentration) of compounds were added in 45 μl volumes to a series of triplicate wells so as to allow simultaneous evaluation of their effects on virus- and mock-infected cells. Five five-fold dilutions were made directly in the microtiter trays using a robot system. Untreated virus controls, and HeLa cell controls were included in each test. Approximately 100 TCID50 of Respiratory Syncytial Virus was added to two of the three rows in a volume of 50 μl. The same volume of medium was added to the third row to measure the cytotoxicity of the compounds at the same concentrations as those used to measure the antiviral activity. After two hours of incubation, a suspension (4×10^5 cells/ml) of HeLa cells was added to all wells in a volume of 50 μl. The cultures were incubated at 37° C. in a 5% CO2 atmosphere. Seven days after infection the cytotoxicity and the antiviral activity was examined spectrophotometrically. To each well of the microtiter tray, 25 μl of a solution of MTT (3-(4,5-dimethylthiazol-2-yl)-2,5-diphenyltetrazolium bromide) was added. The trays were further incubated at 37° C. for 2 hours, after which the medium was removed from each cup. Solubilization of the formazan crystals was achieved by adding 100 μl 2-propanol. Complete dissolution of the formazan crystals were obtained after the trays have been placed on a plate shaker for 10 min. Finally, the absorbances were read in an eight-channel computer-controlled photometer (Multiskan MCC, Flow Laboratories) at two wavelengths (540 and 690 nm). The absorbance measured at 690 nm was automatically subtracted from the absorbance at 540 nm, so as to eliminate the effects of non-specific absorption.
`Cc1ccc(O)c(Cn2c(NCCCN3CCOCC3)nc3ccccc32)n1` [compound 155] returned an Activity of 6.8.

The series is the same for the next values; noted with them: human respiratory syncytial virus, 168 h; RSV-infected HeLa cells, MTT readout seven days after infection; −log of EC50 in molar units.
The EC50 is the concentration at which the effect is half-maximal. A lower EC50 goes with higher potency in that assay. Compound `Cc1ccc(S(=O)(=O)CCO)c(NCc2ccc3nc(NCCCN4CCOCC4)n(Cc4nc(C)ccc4O)c3c2)c1` [Compound 12] showed an EC50 of 0.251 nM.

Regarding `Cc1cc(C)cc(NCc2ccc3nc(NCCCN4CCOCC4)n(Cc4nc(C)ccc4O)c3c2)c1` [Compound 23, 2-[6-[(3,5-dimethyl-phenylamino)-methyl]-2-(3-morpholin-4-yl-propylamino)-benzoimidazol-1-ylmethyl]-6-methyl-pyridin-3-ol], the EC50 is 1 nM.

Turning to `Cc1ccc(O)c(Cn2c(NCCCN3CCOCC3)nc3ccc(CNc4c(C)cc(CCC#N)cc4C)cc32)n1` [Compound 49, 3-(4-{[3-(3-hydroxy-6-methyl-pyridin-2-ylmethyl)-2-(3-morpholin-4-yl-propylamino)-3H-benzoimidazol-5-ylmethyl]-amino}-3,5-dimethyl-phenyl)-propionitrile], the EC50 was 39.8 nM.

`Cc1ccc(I)c(NCc2ccc3nc(NCCCN4CCOCC4)n(Cc4nc(C)ccc4O)c3c2)c1` [Compound 50] had a 50% effective concentration (EC50) of 50.1 nM.

Regarding `Cc1cc(C)cc(N(CCO)Cc2ccc3nc(NCCCN4CCOCC4)n(Cc4nc(C)ccc4O)c3c2)c1` [Compound 58, 2-[6-{[(3,5-dimethyl-phenyl)-(2-hydroxy-ethyl)-amino]-methyl}-2-(3-morpholin-4-yl-propylamino)-benzimidazol-1-ylmethyl]-6-methyl-pyridin-3-ol], the EC50 is 0.398 nM.

For `Cc1cc(C)cc(N(CCCC(N)=O)Cc2ccc3nc(NCCCN4CCOCC4)n(Cc4nc(C)ccc4O)c3c2)c1` [Compound 59, 2-[6-{[(3,5-dimethyl-phenyl)-(3-aminocarbonyl-propyl)-amino]-methyl}-2-(3-morpholin-4-yl-propylamino)-benzimidazol-1-ylmethyl]-6-methyl-pyridin-3-ol], it took 0.251 nM to reach a half-maximal effect (EC50). Against the preceding compound, the EC50 is about 1.6-fold lower.

Take `Cc1cc(C)cc(N(CCCC(=O)O)Cc2ccc3nc(NCCCN4CCOCC4)n(Cc4nc(C)ccc4O)c3c2)c1` [Compound 62, 4-{(3,5-dimethyl-phenyl)-[3-(3-hydroxy-6-methyl-pyridin-2-ylmethyl)-2-(3-morpholin-4-yl-propylamino)-3H-benzoimidazol-5-ylmethyl]-amino}-butyric acid]: the midpoint of the response, the EC50, lay at 0.398 nM.

Take `Cc1cc(C)cc(N(CCN)Cc2ccc3nc(NCCCN4CCOCC4)n(Cc4nc(C)ccc4O)c3c2)c1` [Compound 66, 2-[6-{[(2-amino-ethyl)-(3,5-dimethyl-phenyl)-amino]-methyl}-2-(3-morpholin-4-yl-propylamino)-benzoimidazol-1-ylmethyl]-6-methyl-pyridin-3-ol]: the concentration for a half-maximal effect (EC50) is 1.26 nM.

The series is the same for the next values; noted with them: pEC50 (−log of EC50 when expressed in molar units), protection against RSV cytopathology.
Consider `Cc1cccc(NCc2ccc3nc(NCCCN4CCOCC4)n(Cc4nc(C)c(C)nc4C)c3c2)c1CCO` [Compound 282], for which the Activity is 7.1.

Consider `Cc1cccc(NCc2ccc3nc(NCCCN4CCOCC4)n(Cc4nc(C)c(C)nc4C)c3c2)c1` [Compound 283], for which the Activity stood at 7.1.

Compound `Cc1ccc(NCc2ccc3nc(NCCCN4CCOCC4)n(Cc4nc(C)c(C)nc4C)c3c2)c(CO)c1` [Compound 284] returned an Activity of 7.1.

Compound `Cc1cccc(NCc2ccc3nc(NCCCN4CCOCC4)n(Cc4nc(C)c(C)nc4C)c3c2)c1CO` [Compound 285] yielded an Activity of 7.1.

In turn, `Cc1nc2c(nc1C)C(n1c(NCCCN3CCOCC3)nc3cc(CNc4ccccc4CCO)ccc31)CCC2` (stereo not drawn) [Compound 286] registered an Activity of 7.1.

The compound `Cc1nc2c(nc1C)C(n1c(NCCCN3CCOCC3)nc3cc(CNc4ccccc4CO)ccc31)CCC2` (stereo not drawn) [Compound 287] showed an Activity of 7.1.

Compound `Cn1cnc2c(Cn3c(NCCCN4CCOCC4)nc4ccc(CNc5ccccc5C(N)=O)cc43)cccc21` [Compound 288] showed an Activity of 7.

On to `Cc1nc(C)c(Cn2c(NCCCN3CCOCC3)nc3ccc(CNc4cc(Cl)cc(Cl)c4)cc32)nc1C` [Compound 289], for which the Activity is given as 7.

For `C#Cc1cccc(NCc2ccc3nc(NCCCN4CCOCC4)n(Cc4nc(C)c(C)nc4C)c3c2)c1` [Compound 290], the Activity was determined as 7.

`Cc1nc(C)c(Cn2c(NCCCN3CCOCC3)nc3ccc(CNc4ccc(C(N)=O)cc4)cc32)nc1C` [Compound 291] gave an Activity of 7.

Take `Cc1cccc(NCc2ccc3c(c2)nc(NCCCN2CCOCC2)n3C2CCCc3nc(C)c(C)nc32)c1CCO` (stereo not drawn) [Compound 292]: the Activity was found to be 7.

The compound `Cc1cccc(NCc2ccc3c(c2)nc(NCCCN2CCOCC2)n3C2CCCc3nc(C)c(C)nc32)c1CO` (stereo not drawn) [Compound 293] gave an Activity of 7.

`OCc1ccc2c(c1)nc(NCCCN1CCOCC1)n2Cc1cccc(Br)n1` [Compound 294] yielded an Activity of 6.9.

`Cc1cccc(NCc2ccc3nc(NCCCN4CCOCC4)n(Cc4cccc5c4ncn5C)c3c2)c1` [Compound 295] had an Activity of 6.9.

`Cn1cnc2c(Cn3c(NCCCN4CCOCC4)nc4ccc(CNc5ccc(C(N)=O)cc5)cc43)cccc21` [Compound 296] displayed an Activity of 6.9.

The compound `COc1ccc(C)nc1Cn1c(NCCCN2CCOCC2)nc2ccc(CNc3cccc(Br)c3)cc21` [Compound 297] gave an Activity of 6.9.

In the case of `COc1ccc(C)nc1Cn1c(NCCCN2CCOCC2)nc2ccc(CNc3cccc(C)c3CO)cc21` [Compound 298], the Activity is listed as 6.9.

Turning to `Cc1nc(C)c(Cn2c(NCCCN3CCOCC3)nc3ccc(CNc4ccccc4CCN4CCOCC4)cc32)nc1C` [Compound 299], the Activity was 6.9.

`Cc1nc(C)c(Cn2c(NCCCN3CCOCC3)nc3ccc(CNc4cccc(CCO)c4)cc32)nc1C` [Compound 300] displayed an Activity of 6.9.

Regarding `Cc1ccc(CCCO)c(NCc2ccc3c(c2)nc(NCCCN2CCOCC2)n3Cc2ncccc2O)c1` [Compound 301], the Activity came out at 6.8.

For the compound `Cc1cc(C)cc(N(CCCC(N)=O)Cc2ccc3nc(NCCCN4CCOCC4)n(Cc4ccc(F)cc4)c3c2)c1` [Compound 315], the Activity amounted to 6.5.

Consider `Cc1ccc(CCCO)c(NCc2ccc3c(c2)nc(NCCCN2CCOCC2)n3Cc2cccc3c2ncn3C)c1` [Compound 328], for which the Activity came out at 5.8.

As to `Cc1nc2c(nc1C)C(n1c(NCCCN3CCOCC3)nc3cc(CNc4cc(Cl)cc(Cl)c4)ccc31)CCC2` (stereo not drawn) [Compound 331], the Activity is listed as 5.7.

With `Cc1cccc(Cn2c(NCCCN3CCOCC3)nc3ccc(CNc4ccccc4CCO)cc32)n1` [Compound 333], the Activity stood at 5.5.

With `Cc1cc(C)cc(NCc2ccc3nc(NCCCN4CCOCC4)n(Cc4cccc(C)n4)c3c2)c1` [Compound 334], the Activity worked out at 5.5.

For `Cc1cccc(Cn2c(NCCCN3CCOCC3)nc3ccc(CNc4cccc(C)c4CCO)cc32)n1` [Compound 335], the Activity stood at 5.5.

Compound `Cc1nc2c(nc1C)C(n1c(NCCCN3CCOCC3)nc3cc(CO)ccc31)CCC2` (stereo not drawn) [Compound 336] yielded an Activity of 5.4.

The compound `Cc1cccc(NCc2ccc3nc(NCCCN4CCOCC4)n(Cc4cccc(C)n4)c3c2)c1` [Compound 338] had an Activity of 5.4.

`Cc1nc2c(nc1C)C(n1c(NCCCN3CCOCC3)nc3cc(CNc4ccccc4C(N)=O)ccc31)CCC2` (stereo not drawn) [Compound 340] came in with an Activity of 5.3.

As to `Cc1cccc(Cn2c(NCCCN3CCOCC3)nc3ccc(CNc4ccccc4CCN4CCOCC4)cc32)n1` [Compound 345], the Activity was 5.

Turning to `COc1ccc(C)nc1Cn1c(NCCCN2CCOCC2)nc2ccc(CO)cc21` [Compound 346], the Activity is on record as 4.9.

For `Cc1cccc(Cn2c(NCCCN3CCOCC3)nc3ccc(CNc4cccc(C)c4CO)cc32)n1` [Compound 347], the Activity stood at 4.9.

Compound `COc1ccc(C)nc1Cn1c(NCCCN2CCOCC2)nc2cc(CNc3cc(C)ccc3CCCO)ccc21` [Compound 348] gave an Activity of 4.8.

As to `Cc1ccc(CCCO)c(NCc2ccc3c(c2)nc(NCCCN2CCOCC2)n3Cc2cccc(C)n2)c1` [Compound 350], the Activity is 4.7.
